From the supplement of paper PMC10307832

Assays:
Assay in all cases: relative viability (nuclei count vs DMSO), 5 days (fraction); higher = more cells survive
[1] = compound: CC(C)CCN1c2nc(Nc3cc(F)c(O)c(F)c3)ncc2N(C)C(=O)C1C [BI-D1870] + C[C@]1(O)C[C@@H](c2nc(-c3ccc4ccc(-c5ccccc5)nc4c3)c3c(N)nccn32)C1 [Linsitinib] (partner 1 µM)
Outline: (§1)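 Nuclei were stained with Hoechst during a one-step fixation (final 0.05% Triton X-100, 1% formaldehyde, 1 ug/ml Hoechst) carried out 5 days after dosing, then counted on 4× images. The cells, lung cancer lines in 1536-well plates, had been dosed by pin tool the day after seeding with one drug alone or a fixed anchor-drug dose plus five library-drug doses (not always all listed) in √10 steps. Relative viability is the nuclei count in treated wells divided by that in vehicle wells, and each value is the median of duplicate plates.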

[2] = compound: CC(C)CCN1c2nc(Nc3cc(F)c(O)c(F)c3)ncc2N(C)C(=O)C1C [BI-D1870] + COc1cccc2cc(-c3nc([C@H]4CC[C@H](C(=O)O)CC4)n4ncnc(N)c34)[nH]c12 [OSI-027] (partner 0.5 µM)
Outline: as §1

[3] = compound: CC(C)CCN1c2nc(Nc3cc(F)c(O)c(F)c3)ncc2N(C)C(=O)C1C [BI-D1870] + N=C(N)NC(=N)NCCc1ccccc1 [Phenformin] (partner 250 µM)
Outline: as §1

[4] = compound: O=c1ncccn1[C@@H]1O[C@H](CO)[C@@H](O)[C@H]1O [Zebularine] + CCNC(=O)c1noc(-c2cc(C(C)C)c(O)cc2O)c1-c1ccc(CN2CCOCC2)cc1 [Luminespib] (partner 0.01 µM)
Outline: as §1

Cell Line | relative viability ([1]; first compound 0.04 µM) | relative viability ([1]; first compound 0.1265 µM) | relative viability ([1]; first compound 0.4 µM) | relative viability ([1]; first compound 1.265 µM) | relative viability ([1]; first compound 4 µM) | relative viability ([2]; first compound 0.04 µM) | relative viability ([2]; first compound 0.1265 µM) | relative viability ([2]; first compound 0.4 µM) | relative viability ([2]; first compound 1.265 µM) | relative viability ([2]; first compound 4 µM) | relative viability ([3]; first compound 0.04 µM) | relative viability ([3]; first compound 0.1265 µM) | relative viability ([3]; first compound 0.4 µM) | relative viability ([3]; first compound 1.265 µM) | relative viability ([3]; first compound 4 µM) | relative viability ([4]; first compound 1 µM) | relative viability ([4]; first compound 3.162 µM) | relative viability ([4]; first compound 10 µM) | relative viability ([4]; first compound 31.62 µM) | relative viability ([4]; first compound 100 µM)
Calu-6 | 1.04 | 0.896 | 0.889 | 0.884 | 0.744 |  |  |  |  |  |  |  |  |  |  |  |  |  |  | 
HCC-366 | 0.919 | 0.538 | 0.53 | 0.763 | 0.623 | 1.1 | 0.603 | 0.75 | 0.818 | 0.49 | 0.705 | 0.587 | 0.608 | 0.608 | 0.573 |  |  |  |  | 
NCI-H1648 |  |  |  |  |  | 0.266 | 0.255 | 0.273 | 0.252 | 0.277 |  |  |  |  |  |  |  |  |  | 
EBC-1 | 1.17 | 0.616 | 0.75 | 0.582 | 0.682 |  |  |  |  |  |  |  |  |  |  |  |  |  |  | 
NCI-H1299 | 1.04 | 0.909 | 0.995 | 1.02 | 0.933 |  |  |  |  |  |  |  |  |  |  |  |  |  |  | 
NCI-H2342 |  |  |  |  |  | 0.592 | 0.587 | 0.645 | 0.773 | 0.679 | 0.546 | 0.609 | 0.606 | 0.733 | 0.829 | 0.835 | 0.783 | 0.621 | 0.669 | 0.576
IA-LM | 0.824 | 0.229 | 0.733 | 0.983 | 0.604 |  |  |  |  |  |  |  |  |  |  |  |  |  |  | 
NCI-H2170 |  |  |  |  |  | 0.732 | 0.634 | 0.65 | 0.428 | 0.639 | 0.439 | 0.414 | 0.415 | 0.423 | 0.441 | 1.07 | 0.942 | 0.223 | 0.689 | 0.272
